Activity calls are given as the source filed them. The rule behind the calls is not given here.
Tested on: CCRIS mutagenicity, Ames/micronucleus/aberration tests
Assay: CCRIS mutagenicity studies
[1] = Test System: AMES SALMONELLA TYPHIMURIUM, Strain/Indicator: TA100, Metabolic Activation: NONE, Method: STANDARD PLATE
[2] = Test System: AMES SALMONELLA TYPHIMURIUM, Strain/Indicator: TA97, Metabolic Activation: NONE, Method: PREINCUBATION
[3] = Test System: AMES SALMONELLA TYPHIMURIUM, Strain/Indicator: TA98, Metabolic Activation: HAMSTER, LIVER, S-9, AROCLOR 1254 (10%), Method: PREINCUBATION
[4] = Test System: AMES SALMONELLA TYPHIMURIUM, Strain/Indicator: TA98, Metabolic Activation: NONE, Method: PREINCUBATION
[5] = Test System: AMES SALMONELLA TYPHIMURIUM, Strain/Indicator: TA98, Metabolic Activation: RAT, LIVER, S-9, AROCLOR 1254 (10%), Method: PREINCUBATION
[6] = Test System: AMES SALMONELLA TYPHIMURIUM, Strain/Indicator: TA100, Metabolic Activation: HAMSTER, LIVER, S-9, AROCLOR 1254 (10%), Method: PREINCUBATION
[7] = Test System: AMES SALMONELLA TYPHIMURIUM, Strain/Indicator: TA100, Metabolic Activation: NONE, Method: PREINCUBATION
[8] = Test System: AMES SALMONELLA TYPHIMURIUM, Strain/Indicator: TA100, Metabolic Activation: RAT, LIVER, S-9, AROCLOR 1254 (10%), Method: PREINCUBATION
[9] = Test System: AMES SALMONELLA TYPHIMURIUM, Strain/Indicator: TA1535, Metabolic Activation: HAMSTER, LIVER, S-9, AROCLOR 1254 (10%), Method: PREINCUBATION
[10] = Test System: AMES SALMONELLA TYPHIMURIUM, Strain/Indicator: TA1535, Metabolic Activation: NONE, Method: PREINCUBATION
[11] = Test System: AMES SALMONELLA TYPHIMURIUM, Strain/Indicator: TA1535, Metabolic Activation: RAT, LIVER, S-9, AROCLOR 1254 (10%), Method: PREINCUBATION

Measured: mutagenic call

Clc1ccc2c(c1)C(c1ccccc1)=NCc1nncn1-2
inactive: Test System: AMES SALMONELLA TYPHIMURIUM, Strain/Indicator: TA98, Metabolic Activation: NONE, Method: STANDARD PLATE inactive; negative | Test System: AMES SALMONELLA TYPHIMURIUM, Strain/Indicator: TA98, Metabolic Activation: RAT, LIVER, S-9, AROCLOR 1254, Method: STANDARD PLATE inactive; negative | [1] inactive; negative | Test System: AMES SALMONELLA TYPHIMURIUM, Strain/Indicator: TA100, Metabolic Activation: RAT, LIVER, S-9, AROCLOR 1254, Method: STANDARD PLATE inactive; negative | Test System: AMES SALMONELLA TYPHIMURIUM, Strain/Indicator: TA102, Metabolic Activation: NONE, Method: STANDARD PLATE inactive; negative | Test System: AMES SALMONELLA TYPHIMURIUM, Strain/Indicator: TA102, Metabolic Activation: RAT, LIVER, S-9, AROCLOR 1254, Method: STANDARD PLATE inactive; negative | Test System: AMES SALMONELLA TYPHIMURIUM, Strain/Indicator: TA1535, Metabolic Activation: NONE, Method: STANDARD PLATE inactive; negative | Test System: AMES SALMONELLA TYPHIMURIUM, Strain/Indicator: TA1535, Metabolic Activation: RAT, LIVER, S-9, AROCLOR 1254, Method: STANDARD PLATE inactive; negative | Test System: AMES SALMONELLA TYPHIMURIUM, Strain/Indicator: TA1537, Metabolic Activation: NONE, Method: STANDARD PLATE inactive; negative | Test System: AMES SALMONELLA TYPHIMURIUM, Strain/Indicator: TA1537, Metabolic Activation: RAT, LIVER, S-9, AROCLOR 1254, Method: STANDARD PLATE inactive; negative | Test System: E. COLI, Strain/Indicator: WP2 UVRA, Metabolic Activation: NONE, Method: STANDARD PLATE inactive; negative | Test System: E. COLI, Strain/Indicator: WP2 UVRA, Metabolic Activation: RAT, LIVER, S-9, AROCLOR 1254, Method: STANDARD PLATE inactive; negative

O=C1OC(=O)c2cc([N+](=O)[O-])ccc21
active: [2] active; positive | Test System: AMES SALMONELLA TYPHIMURIUM, Strain/Indicator: TA97, Metabolic Activation: RAT, LIVER, S-9, AROCLOR 1254 (10%), Method: PREINCUBATION active; positive | [3] active; positive | [4] active; positive | [5] active; positive | [9] active; positive | Test System: AMES SALMONELLA TYPHIMURIUM, Strain/Indicator: TA1537, Metabolic Activation: NONE, Method: PREINCUBATION active; positive | Test System: AMES SALMONELLA TYPHIMURIUM, Strain/Indicator: TA1537, Metabolic Activation: RAT, LIVER, S-9, AROCLOR 1254 (10%), Method: PREINCUBATION active; positive
inactive: Test System: AMES SALMONELLA TYPHIMURIUM, Strain/Indicator: TA97, Metabolic Activation: HAMSTER, LIVER, S-9, AROCLOR 1254 (10%), Method: PREINCUBATION inactive; negative | [6] inactive; negative | [7] inactive; negative | [8] inactive; negative | [10] inactive; negative | [11] inactive; negative | Test System: AMES SALMONELLA TYPHIMURIUM, Strain/Indicator: TA1537, Metabolic Activation: HAMSTER, LIVER, S-9, AROCLOR 1254 (10%), Method: PREINCUBATION inactive; negative

O=[N+]([O-])c1ccc(OC[C@H]2CO2)cc1
active: [1] active; positive

[Ga]#[As]
inactive: Test System: AMES SALMONELLA TYPHIMURIUM, Strain/Indicator: TA97, Metabolic Activation: HAMSTER, LIVER, S-9, AROCLOR 1254 (10 OR 30%), Method: PREINCUBATION inactive; negative | [2] inactive; negative | Test System: AMES SALMONELLA TYPHIMURIUM, Strain/Indicator: TA97, Metabolic Activation: RAT, LIVER, S-9, AROCLOR 1254 (10 OR 30%), Method: PREINCUBATION inactive; negative | [3] inactive; negative | Test System: AMES SALMONELLA TYPHIMURIUM, Strain/Indicator: TA98, Metabolic Activation: HAMSTER, LIVER, S-9, AROCLOR 1254 (30%), Method: PREINCUBATION inactive; negative | [4] inactive; negative | [5] inactive; negative | Test System: AMES SALMONELLA TYPHIMURIUM, Strain/Indicator: TA98, Metabolic Activation: RAT, LIVER, S-9, AROCLOR 1254 (30%), Method: PREINCUBATION inactive; negative | [6] inactive; negative | Test System: AMES SALMONELLA TYPHIMURIUM, Strain/Indicator: TA100, Metabolic Activation: HAMSTER, LIVER, S-9, AROCLOR 1254 (30%), Method: PREINCUBATION inactive; negative | [7] inactive; negative | [8] inactive; negative | Test System: AMES SALMONELLA TYPHIMURIUM, Strain/Indicator: TA100, Metabolic Activation: RAT, LIVER, S-9, AROCLOR 1254 (30%), Method: PREINCUBATION inactive; negative | Test System: AMES SALMONELLA TYPHIMURIUM, Strain/Indicator: TA102, Metabolic Activation: HAMSTER, LIVER, S-9, AROCLOR 1254 (5 OR 10%), Method: PREINCUBATION inactive; negative | Test System: AMES SALMONELLA TYPHIMURIUM, Strain/Indicator: TA102, Metabolic Activation: HAMSTER, LIVER, S-9, AROCLOR 1254 (30%), Method: PREINCUBATION inactive; negative | Test System: AMES SALMONELLA TYPHIMURIUM, Strain/Indicator: TA102, Metabolic Activation: NONE, Method: PREINCUBATION inactive; negative | Test System: AMES SALMONELLA TYPHIMURIUM, Strain/Indicator: TA102, Metabolic Activation: RAT, LIVER, S-9, AROCLOR 1254 (10%), Method: PREINCUBATION inactive; negative | Test System: AMES SALMONELLA TYPHIMURIUM, Strain/Indicator: TA102, Metabolic Activation: RAT, LIVER, S-9, AROCLOR 1254 (30%), Method: PREINCUBATION inactive; negative | [9] inactive; negative | Test System: AMES SALMONELLA TYPHIMURIUM, Strain/Indicator: TA1535, Metabolic Activation: HAMSTER, LIVER, S-9, AROCLOR 1254 (30%), Method: PREINCUBATION inactive; negative | [10] inactive; negative | [11] inactive; negative | Test System: AMES SALMONELLA TYPHIMURIUM, Strain/Indicator: TA1535, Metabolic Activation: RAT, LIVER, S-9, AROCLOR 1254 (30%), Method: PREINCUBATION inactive; negative

[CH3][Hg][CH3]
inactive: Test System: CHINESE HAMSTER G10, Strain/Indicator: G10/6-THIOGUANINE, Metabolic Activation: NONE inactive; negative | Test System: CHINESE HAMSTER G12, Strain/Indicator: G12/6-THIOGUANINE, Metabolic Activation: NONE inactive; negative | Test System: CHINESE HAMSTER V-79, Strain/Indicator: V-79/6-THIOGUANINE, Metabolic Activation: NONE inactive; negative
active: End Point: IN VITRO CHROMOSOMAL ABERRATIONS, Test System: HUMAN PERIPHERAL LYMPHOCYTES, Metabolic Activation: NONE active; positive (structural changes and ploidy)
